In US20020183307A1, “Novel 1,4-benzothiazephine and 1,5-benzothiazepine compounds as inhibitors of apical sodium co-dependent bile acid transport and taurocholate uptake” (priority 2000, published 2002):

molecular target: T1, human IBAT (Homo sapiens, UniProt Q12908); assay: In vitro assay of compounds that inhibit IBAT-mediated uptake of [14C]-taurocholate (TC) in H14 cells; assay type: cell-based; conditions: Table 7, 1,5-benzothiazepines; 50% inhibitory concentrations by the biological evaluation procedures
T1 construct: expressed in transfected cells; host or cells: Baby hamster kidney (BHK) cells, H14 clone
T1 sequence (Q12908 1-348): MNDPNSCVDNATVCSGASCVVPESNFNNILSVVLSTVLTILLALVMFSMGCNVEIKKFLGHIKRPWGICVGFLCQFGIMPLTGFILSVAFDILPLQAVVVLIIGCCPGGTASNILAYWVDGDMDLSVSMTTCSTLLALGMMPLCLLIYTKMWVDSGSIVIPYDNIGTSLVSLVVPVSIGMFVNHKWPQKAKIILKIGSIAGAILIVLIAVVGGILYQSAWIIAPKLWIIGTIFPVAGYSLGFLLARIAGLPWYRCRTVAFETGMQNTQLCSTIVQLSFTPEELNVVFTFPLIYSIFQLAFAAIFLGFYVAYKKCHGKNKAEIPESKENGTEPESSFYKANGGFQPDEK
Description: In Vitro Assay of Compounds That Inhibit IBAT-mediated Uptake of [^14C]-Taurocholate (TC) in H14 Cells
Baby hamster kidney cells (BHK) transfected with the cDNA of human IBAT (Hl4 cells) are seeded in 96 well Top-Count tissue culture plates at 60,000 cells/well for assays run within 24 hours of seeding, 30,000 cells/well for assays run within 48 hours, and 10,000 cells/well for assays run within 72 hours.
On the day of assay, the cell monolayer is gently washed once with […] (Dulbecco's Modified Eagle's medium with 4.5 g/L glucose plus 0.2% (w/v) fatty acid free bovine serum albumin ((FAF)BSA). To each well […] of a two-fold concentrate of test compound in assay buffer is added along with […] of […] [^14C]-taurocholate in assay buffer (final concentration of […] [^14C]-taurocholate).
The cell culture plates are incubated 2 hours at 37° C. prior to gently washing each well twice with […] 4° C. Dulbecco's phosphate-buffered saline (PBS) containing 0.2% (w/v) (FAF)BSA. The wells are then gently washed once with […] 4° C. PBS without (FAF)BSA. To each […] of liquid, scintillation counting fluid is added.
The plates are heat sealed and shaken for 30 minutes at room temperature prior to measuring the amount of radioactivity in each well on a Packard Top-Count instrument.

Row | IC50 [nM] | Structure (SMILES)
1 | 31 | CCCCC1(CCCC)CN(c2ccc(OCc3ccc(C[N+]45CCN(CC4)CC5)cc3)cc2)c2cc(N(C)C)ccc2S(=O)(=O)C1 [PHA00384640E]
2 | 289 | CCCCC1(CCCC)CN(c2ccc(OC)cc2)c2cc(N(C)C)ccc2S(=O)(=O)C1 [SC-86287]

Second part, the compound before the results:

Row | Structure (SMILES) | IC50 [nM]
3 | CCCCC1(CCCC)CN(c2ccc(OCCN(CC)CC)cc2)c2cc(N(C)C)ccc2S(=O)(=O)C1 [PHA00400670] | 26400
4 | CCCCC1(CCCC)CN(c2ccc(OCC[N+](CC)(CC)CC)cc2)c2cc(N(C)C)ccc2S(=O)(=O)C1 [PHA00400884E] | > 1000
5 | CCCCC1(CCCC)CN(c2ccc(OCCOCCOCC[N+](CC)(CC)CC)cc2)c2cc(N(C)C)ccc2S(=O)(=O)C1 [PHA00400885E] | 300
6 | CCCCC1(CCCC)CN(c2ccc(OC)cc2)c2cc(F)ccc2S(=O)(=O)C1 [SC-86288] | 320

same assay, conditions: Table 8, 1,4 and 1,5 benzothiazipines; additional IC50 values

Row | IC50 [nM] | Structure (SMILES)
7 | 22 | CCCCC1(CCCC)CS(=O)(=O)c2ccc(N(C)C)cc2[C@@H](c2ccc(OCc3ccc(C[N+]45CCN(CC4)CC5)cc3)cc2)N1 (racemic) [Compound 5]
8 | 289 | CCCCC1(CCCC)CN(c2ccc(OC)cc2)c2cc(N(C)C)ccc2S(=O)(=O)C1 [Compound 6, 3,3-Dibutyl-2,3,4,5-tetrahydro-7-dimethylamino-5-(4′-methoxyphenyl)-1,5-benzothiazepine1,1-dioxide]
9 | 30 | CCCCC1(CCCC)CN(c2ccc(OCc3ccc(C[N+]45CCN(CC4)CC5)cc3)cc2)c2cc(N(C)C)ccc2S(=O)(=O)C1 [Compound 9, 1-[[4-[[4-[3,3-Dibutyl-7-(dimethylamino)-2,3,4,5-tetrahydro-1,1-dioxido-1,5-benzothiazepin-5-yl]phenoxy]methyl]phenyl]methyl]-4-aza-1-azoniabicyclo[2.2.2]octane Chloride]

Further lines, the compound ahead of its results:

Row | Structure (SMILES) | IC50 [nM]
10 | CCCCC1(CCCC)CS(=O)(=O)c2ccc(N(C)C)cc2[C@@H](c2ccc(OCC[N+](CC)(CC)CC)cc2)N1 (racemic) [Compound 3, N-[2-[4-[3,3-Dibutyl-7-(dimethylamino)-2,3,4,5-etrahydro-1,1-dioxido-1,4-benzothiazepin-5-yl]phenoxy]ethyl]-N,N,N-triethylaminium Iodide] | 2090
11 | CCCCC1(CCCC)CS(=O)(=O)c2ccc(N(C)C)cc2[C@@H](c2ccc(OCCOCCOCC[N+](CC)(CC)CC)cc2)N1 (racemic) [Compound 4, N-[2-[2-[2-[4-[3,3-Dibutyl-7-(dimethylamino)-2,3,4,5-tetrahydro-1,1-dioxido-1 4-benzothiazepin-5-yl]phenoxy]ethoxy]ethoxy]ethoxy]-N,N,N-triethylaminium Iodide] | 74
12 | CCCC[C@]1(CC)CS(=O)(=O)c2ccccc2[C@@H](c2ccccc2)N1 [Compound 1] | 600
13 | CCCCC1(CCCC)CN(c2ccc(OCC[N+](CC)(CC)CC)cc2)c2cc(N(C)C)ccc2S(=O)(=O)C1 [Compound 7] | 15100
14 | CCCCC1(CCCC)CN(c2ccc(OCCOCCOCC[N+](CC)(CC)CC)cc2)c2cc(N(C)C)ccc2S(=O)(=O)C1 [Compound 8, N-[2-[2-[2-[4-[3,3-Dibutyl-7-(dimethylamino)-2,3,4,5-tetrahydro-1,1-dioxido-1,5-benzothiazepin-5-yl]phenoxy]ethoxy]ethoxy]ethoxy]-NNN-triethylaminium Iodide] | 300
